Measured values reported in PubChem BioAssay (NCI).
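These data come from cells grown in 96-well plates and exposed to compound for 48 hours at five concentrations. At the GI50, growth is halved. TGI: concentration producing complete growth inhibition.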

Tests used:
Assay in all cases: NCI-60 cell line screen, 48 h
ACHN renal = system: ACHN renal
BT-549 breast = system: BT-549 breast
COLO 205 colon = system: COLO 205 colon
IGROV1 ovarian = system: IGROV1 ovarian
K-562 leukemia = system: K-562 leukemia
LOX IMVI melanoma = system: LOX IMVI melanoma
MDA-MB-435 = system: MDA-MB-435
OVCAR-8 ovarian = system: OVCAR-8 ovarian
SF-268 CNS = system: SF-268 CNS
SNB-19 CNS = system: SNB-19 CNS

Compound	TGI (ACHN renal) [µM]	TGI (BT-549 breast) [µM]	TGI (COLO 205 colon) [µM]	TGI (IGROV1 ovarian) [µM]	TGI (K-562 leukemia) [µM]	TGI (LOX IMVI melanoma) [µM]	TGI (MDA-MB-435) [µM]	TGI (OVCAR-8 ovarian) [µM]	TGI (SF-268 CNS) [µM]	TGI (SNB-19 CNS) [µM]	GI50 (ACHN renal) [µM]	GI50 (BT-549 breast) [µM]	GI50 (COLO 205 colon) [µM]	GI50 (K-562 leukemia) [µM]	GI50 (LOX IMVI melanoma) [µM]	GI50 (MDA-MB-435) [µM]	GI50 (OVCAR-8 ovarian) [µM]	GI50 (SNB-19 CNS) [µM]
CCOC(=O)C(C(=S)Nc1ccccc1)c1nn2c(=O)cc(C)nc2s1 (stereo unspecified)	66.6	78.7	39.5	> 100	49	30.4	47.7	51	> 100	> 100	–	–	–	–	–	–	–	–
Nc1[nH]c(=S)nc2snnc12	> 100	> 100	> 100	> 100	> 100	> 100	> 100	> 100	> 100	> 100	–	–	–	–	–	–	–	–
CN1C(=O)[C@@H]2[C@@H]3c4ccccc4N(S(=O)(=O)C(F)(F)F)[C@@H]3c3[nH]c4ccccc4c3[C@@H]2C1=O	> 100	> 100	> 100	5.43	> 100	> 100	> 100	> 100	> 100	> 100	–	–	–	–	–	–	–	–
N#C/C(=C\NC(=S)c1ccncc1)c1nc2ccccc2s1	> 100	> 100	> 100	> 100	> 100	> 100	> 100	> 100	> 100	> 100	–	–	–	–	–	–	–	–
CCOC(=O)c1ccc(C(=O)/C(C(C)=O)=C2\CCCN2C)n1C	> 100	> 100	> 100	> 100	> 100	> 100	> 100	> 100	> 100	> 100	–	–	–	–	–	–	–	–
COc1ccc(/C=C2\CCC(CNc3ccc(OC)cc3)C2=O)cc1 (stereo unspecified)	58.6	26.8	31.9	19.2	> 33.3	28	40.6	36.3	34.1	> 59.2	–	–	–	–	–	–	–	–
COC1(OC)CC(CO)(CNc2cc(Cl)nc(N)n2)C1	> 100	> 100	> 100	> 100	> 100	> 100	> 100	> 100	> 100	> 100	–	–	–	–	–	–	–	–
CC(=C(C(N)=O)C(N)=O)C1C=C(c2cccs2)CC(c2ccc(Cl)cc2)=C1O (stereo unspecified)	> 100	> 100	> 100	> 100	> 100	40.4	> 100	> 100	> 100	> 100	–	–	–	–	–	–	–	–
Cc1noc2nnn(-c3ccc(Cl)cc3)c(=O)c12	15.1	13.5	11.9	19.2	11.2	11.4	16.2	29.8	22.1	26.1	–	–	–	–	–	–	–	–
COc1ccc2sc(-n3nc4ccccc4c3Nc3nc4ccc(OC)cc4s3)nc2c1	11.2	14	> 63.9	8.47	> 38.9	24.3	12	6.17	32.5	9.26	–	–	–	–	–	–	–	–
CCOC(=O)C1OC(C2(C)OC3(OC4(C=CC3O)OC(C(C)C(=O)C(C)C(O)C(C)CC(C)c3c(Cl)cc(C)c(O)c3C(=O)O)C(C)CC4C)C(C)C2OC)CC1O (stereo unspecified)	6.78	17.2	2.08	16.5	5.16	14.2	1.22	13.3	6.85	–	–	–	–	–	–	–	–	–
COc1cc(/C=C/C(=O)c2c(C)nc3ccccc3c2C)ccc1OCCCOc1cc2c(cc1OC)C(=O)N1CCC[C@H]1C=N2	0.106	0.0428	0.0453	–	0.0346	0.0602	0.04	> 38.1	–	–	0.0313	0.0149	0.0211	0.011	0.0193	0.0197	0.0329	0.187
COc1ccc(/C=C2\N=C(c3ccccc3)N(N=C3NC(=O)CC(=O)N3)C2=O)cc1	> 100	> 100	> 100	> 100	> 100	–	> 100	> 100	> 100	> 100	–	–	–	–	–	–	–	–
CC1OC2(CC(OCc3ccccc3)C1OCc1ccccc1)OCCO2 (stereo unspecified)	> 100	> 100	> 100	> 100	> 100	> 100	> 100	> 100	> 100	> 100	–	–	–	–	–	–	–	–
Cc1ccc(-n2[nH]nc(C#N)c2=O)cc1	> 100	> 100	> 100	> 100	> 100	–	> 100	> 100	> 100	> 100	–	–	–	–	–	–	–	–
c1ccc2c(c1)ncn2C1CCCCO1 (stereo unspecified)	> 100	> 100	> 100	> 100	> 100	> 100	> 100	> 100	> 100	> 100	–	–	–	–	–	–	–	–
N=C(N)SCc1ccc(Cl)cc1Cl (tested in a mixture with another compound)	23.1	36	39.6	42.9	25.5	38.8	18.3	> 100	40	47.6	–	–	–	–	–	–	–	–
CCN1CCN(c2nc3ccc([N+](=O)[O-])cc3nc2C(=O)c2ccccc2)CC1	29.3	16.9	30	18.9	> 100	17.8	30.2	30.5	38	71.2	–	–	–	–	–	–	–	–
CSc1c(C#N)c(N)nc2c(N=Nc3ccc(Cl)cc3)c(N)nn12	12.4	9.97	30.3	3.46	4.75	2.87	28.1	4.15	5.7	40.7	–	–	–	–	–	–	–	–
O=C/C=C/c1ccco1	> 100	> 100	> 100	> 100	> 100	> 100	> 100	> 100	> 100	> 100	–	–	–	–	–	–	–	–
Cn1/c(=N\S(=O)(=O)c2ccccc2)n(S(=O)(=O)c2ccccc2)c2ccccc21	> 100	> 100	> 100	> 100	> 100	> 100	> 100	> 100	> 100	> 100	–	–	–	–	–	–	–	–
CN(C)c1nncc2[nH]cnc12	> 100	> 100	> 100	> 100	> 100	–	> 100	> 100	> 100	> 100	–	–	–	–	–	–	–	–

Compound	TGI (ACHN renal) [µM]	TGI (BT-549 breast) [µM]	TGI (COLO 205 colon) [µM]	TGI (IGROV1 ovarian) [µM]	TGI (K-562 leukemia) [µM]	TGI (LOX IMVI melanoma) [µM]	TGI (MDA-MB-435) [µM]	TGI (OVCAR-8 ovarian) [µM]	TGI (SF-268 CNS) [µM]	TGI (SNB-19 CNS) [µM]	GI50 (ACHN renal) [µM]	GI50 (BT-549 breast) [µM]	GI50 (COLO 205 colon) [µM]	GI50 (K-562 leukemia) [µM]	GI50 (LOX IMVI melanoma) [µM]	GI50 (MDA-MB-435) [µM]	GI50 (OVCAR-8 ovarian) [µM]	GI50 (SNB-19 CNS) [µM]
Cc1cc(Cc2c(F)c(F)c(C(c3cc(C)no3)c3c(F)c(F)c(F)c(F)c3F)c(F)c2F)on1 (stereo unspecified)	> 100	> 100	> 100	> 100	> 100	> 100	> 41.9	> 100	> 100	> 100	–	–	–	–	–	–	–	–
c1csc(-c2cc(-c3cccs3)c(-c3cccs3)s2)c1	> 100	> 100	> 100	> 100	> 100	–	> 100	> 100	> 100	> 100	–	–	–	–	–	–	–	–
O=S(=O)(O)ON=C1c2ccccc2-c2ccccc21	> 100	> 100	> 100	> 100	> 100	> 100	> 100	> 100	> 100	> 100	–	–	–	–	–	–	–	–
O=C1[C@@H]2[C@@H](c3ccccc3)[C@]2(Cl)C(=O)[C@H]2[C@H](c3ccccc3)[C@@]12Cl	> 100	> 100	> 100	> 100	> 100	> 100	> 100	> 100	> 100	> 100	–	–	–	–	–	–	–	–
O=c1oc2cc(O)ccc2c(O)c1C(c1cccnc1)c1c(O)c2ccc(O)cc2oc1=O	> 100	> 100	> 100	> 100	> 100	> 100	> 100	> 100	> 100	> 100	–	–	–	–	–	–	–	–
N#CCCN(CCC#N)c1ccc(/C=C2\N=C(c3ccccc3)N(NC(N)=S)C2=O)cc1	> 100	> 100	> 100	> 100	> 100	> 100	> 100	> 100	> 100	> 100	–	–	–	–	–	–	–	–
CCOC(=O)Cc1nc2sc(S(N)(=O)=O)nn2c1Br	93.3	83.8	> 100	90.8	> 100	44.3	> 100	47.7	> 100	> 100	–	–	–	–	–	–	–	–
CCOC(=O)c1c(N2CCCC2)[nH]c(=O)c(C(c2ccco2)c2c(O)c(C(=O)OCC)c(N3CCCC3)[nH]c2=O)c1O	> 100	> 100	> 100	–	> 100	> 100	> 100	> 100	> 100	> 100	–	–	–	–	–	–	–	–
O=C1CCC(=O)N1n1c(Cc2ccc(Cl)cc2)n[nH]c1=O	> 100	> 100	> 100	> 100	> 100	> 100	> 100	> 100	> 100	> 100	–	–	–	–	–	–	–	–
CC(C)[Si](OC1=CCC[C@H]2NC(=O)[C@@H](Cc3ccccc3)[C@@]12C)(C(C)C)C(C)C	5.25	24.1	6.35	26.7	12.5	11.2	13.4	24.8	29.1	22.5	–	–	–	–	–	–	–	–
Cn1c2ccccc2c2c(=O)[nH]c(=O)[nH]c21	> 100	> 100	> 100	> 100	> 100	> 100	> 100	> 100	> 100	> 100	–	–	–	–	–	–	–	–
Cc1cc(C)nc(SC(C)C(=O)N/N=C/c2ccc(OCc3ccccc3)cc2)n1 (stereo unspecified)	> 100	> 100	91.6	> 100	> 100	> 100	> 100	> 100	> 100	> 100	–	–	–	–	–	–	–	–
COc1ccc(C(SCCO)(c2ccccc2)c2ccccc2)cc1	27.3	32.4	27.5	–	> 100	39.7	27.1	38.5	31.7	29.1	–	–	–	–	–	–	–	–
COC(=O)/C=C/c1ccc2c(c1)CC1(C2)Cc2cc3c(cc2C1=O)CCC3 (stereo unspecified)	> 100	> 100	> 100	> 100	> 100	> 100	> 100	68.8	> 100	> 100	–	–	–	–	–	–	–	–
N=c1c2c(-c3ccccc3)c[nH]c2ncn1N	> 100	> 100	> 100	> 100	> 100	> 100	> 100	> 100	–	> 100	–	–	–	–	–	–	–	–
N#Cc1c(N)sc2c1-c1ccccc1OC2	> 100	> 100	> 100	> 100	> 100	> 100	> 100	–	> 100	> 100	–	–	–	–	–	–	–	–
COc1cc(COC(=O)N(CC(=O)O)c2ccccc2)c([N+](=O)[O-])cc1OC	> 100	> 100	> 100	> 100	> 100	–	> 100	> 100	> 100	> 100	–	–	–	–	–	–	–	–
Cc1ccc(O)c(-c2cc(-c3cccc(Cl)c3)c(C#N)c(N)n2)c1	42.1	> 100	32.3	24.6	48.4	30.8	34.3	> 100	51.3	–	–	–	–	–	–	–	–	–
Nc1nc(N)c2ncn(Cc3ccccc3CCl)c2n1	> 100	> 100	> 100	> 100	> 100	–	> 100	> 100	> 100	> 100	–	–	–	–	–	–	–	–
O=C(O)c1cnc2[nH]ccn2c1=O	> 100	> 100	> 100	> 100	> 100	–	> 100	> 100	> 100	> 100	–	–	–	–	–	–	–	–
O=C(/C=C/c1ccc(/C=C/C(=O)c2ccc(O)cc2)cc1)c1ccc(O)cc1	> 100	> 100	> 100	–	> 100	> 100	> 100	> 100	> 100	> 100	–	–	–	–	–	–	–	–
